Measured values reported in patent US8207154B2, “Catatonic bacteriochlorophyll derivatives” (Yeda Research and Development Co., Ltd., priority 2005, dated 2012).

Legend:
[1] = system: H5V mouse endothelial cells; test: Phototoxicity (cytophototoxicity) on endothelial cells, Neutral Red viability; type: cell-based; details: endothelial cell cultures, FIG. 3C
Experimental: (i) Cell culture. H5V mouse endothelial cells were cultured as monolayers in Dulbecco's modified Eagle's medium (DMEM)/F12 containing 25 mM HEPES, pH 7.4, 10% fetal calf serum (FCS), glutamine (2 mM), penicillin (0.06 mg/ml), and streptomycin (0.1 mg/ml) (hereinafter referred to as the “culture medium”). The cells were grown at 37° C. in an 8% CO2-humidified atmosphere.
(a) Cells. To determine the photodynamic efficacy, cells were cultured in 96-well plates (40×10^3/well) and incubated in the dark in culture medium containing increasing concentrations of sensitizers 5, 7, 9 and 11, for a period of 1 min to 8 h. Unbound sensitizer was removed by washing the cells once with fresh culture medium. The plates were illuminated at room temperature, from their bottom side, for 10 min (650<λ<800 nm, 12 J/cm^2). The light source was a 100 W Halogen lamp (Osram, Germany) equipped with a <650 nm cutoff and a 4-cm water filter. The cultures were placed in the culture incubator and cell survival was determined 24 h after illumination, by Neutral Red viability assay. Cell survival was calculated as the percent of the dye accumulated in the untreated controls. Triplicate determinations were conducted and representative experiments are shown. […]
The phototoxicity of compounds 5, 7, 9, and 11 on H5V mouse endothelial cells was determined as described in section (iv) (a) above. […]

[2] = Pharmacokinetics in rat blood after i.v. injection (fluorescence); type: in vivo, Wistar rats
Experimental: (ix) Pharmacokinetics. Anesthetized Wistar rats (n=3 per each time-point) were i.v. injected with compound 5 of the invention (0.6 mg/kg). […] Control blood samples were collected from three untreated rats and treated accordingly. The test tubes containing the blood samples were weighed again in order to calculate the exact sample mass. The blood samples were then frozen in liquid nitrogen and lyophilized. The lyophilized samples were extracted with methanol (1 ml each), vortexed and centrifuged. The supernatant was collected and analyzed by fluorescence measurements (Spectrofluorimeter SLM-8000, Aminco USA). The fluorescence emission spectra were recorded in a range of 650-850 nm, with excitation at 520 nm. Fluorescence of methanol and untreated blood extracts were used as blanks. A calibration curve with known concentrations of the sensitizer was prepared.

C6 glioma xenografts = test: Photodynamic treatment (PDT) of C6 glioma xenografts; type: in vivo, CD1 nude mice
Experimental: (vii) Tumor implantation. Cultured C6 glioma cell monolayers were scraped in saline, centrifuged at 250 g for 5 min, resuspended in saline and subcutaneously injected (2×10^6 cells/mouse) into the back of CD1 nude mice. Tumors reached a treatment diameter of 6-8 mm within 2 weeks. The mice were sacrificed (according to the guidelines of the Weizmann Institute of Science) when tumors reached the diameter of ≧15 mm.
(xi) PDT Protocol. CD1 nude mice bearing C6 glioma (n=17) were anesthetized and compound 5 (0.3 mg/kg) was injected via the tail vein. The tumor area was immediately illuminated (drug-to-light time interval (DLTI)=0) transcutaneously for 15 min by 755 nm diode laser (CeramOptec, Germany) with light dose of 80 mW/cm^2 (light field diameter—14 mm). Following illumination the mice (n=12) were placed back in the cage. Tumor response (using local necrosis at day 8 post-PDT as end point) was recorded photographically, and tumor volume was assessed (Gleave et al., 1992.) Response was considered as partial when only a part of the illuminated tumor became necrotic. Mice were considered cured if they were tumor free 90 days after treatment. Continued tumor growth following PDT was scored as no response. Mice were sacrificed when tumor diameter reached 15 mm. The following controls were used: (i) dark control (n=3)-tumor-bearing mice i.v. injected with sensitizer but not illuminated; (ii) light control (n=2)-tumor-bearing mice not injected with sensitizer but illuminated; (iii) untreated control (n=2)-tumor-bearing mice not injected with sensitizer and not illuminated.
Based on the pharmacokinetic data described in Example 20 above, the treatment protocol for compound 5 was set to 15-min illumination immediately after injection of the sensitizer, using a dedicated medical laser matched to the peak absorption of 5 (CeramOptec, Germany, 755 nm). In order to test the drug efficiency, CD1 male nude mice (n=12) were treated with a dose of 0.3 mg/kg compound 5 and light intensity of 80 mW/cm^2. […] FIGS. 6B-6C are photographs of the tumor site of a mice injected with compound 5 but not illuminated and of a mice injected with saline and illuminated, respectively.
FIG. 7 depicts a Kaplan-Meier survival curve showing 80% survival for mice treated with compound 5 and illuminated (treatment, squares).

E. coli = test: Phototoxicity on Gram-negative bacteria, colony counting; type: cell-based, E. coli XL-1
Experimental: (ii) Bacterial cultures. Bacteria of strains St. albus and E. coli XL-1 were cultured in liquid LB medium (E. coli in LB containing 12.5 μg tetracyclin/ml) to a final density of OD600 nm=0.5-0.9 (1 OD=8×10^8 bacteria/ml). The bacteria were spun down (4000×g, 5 min.) and resuspended in PBS.
(b) Bacterial. To determine the photodynamic efficacy, bacteria were diluted to aliquots of 300 μl containing about 10^7 bacteria, and incubated with increasing concentrations of sensitizer in plastic test tubes in the dark for 1 h at room temperature, and then illuminated at 70 mW/cm^2 for 15 min. Samples of the treated bacteria cultures were subsequently plated at different dilutions (50-200 bacteria/plate) on LB agar and cultured for 24 h at 37° C. for determination of bacterial survival by colony counting. Triplicate determinations were conducted and representative experiments are shown.
The phototoxicity of positively-charged compound 5 was tested on Gram-positive St. albus and Gram-negative E. coli bacteria in comparison to the negatively-charged Pd 3^1-oxo-15-methoxycarbonylmethyl-Rhodobacteriochlorin 13^1-(2-sulfoethyl)amide dipotassium salt (described in PCT/IL03/00973). Bacteria were incubated with increasing concentrations of the sensitizers for 1 h and illuminated or kept in the dark. […] Gram-positive bacteria St. albus, was 100 times more sensitive to compound 5 than Gram-negative E. coli. No phototoxicity was observed when bacteria were incubated and treated with the same sensitizers' concentration range without illumination (dark controls).

3^1-Oxo-15-methoxycarbonylmethyl-Rhodo-bacteriochlorin 13^1,17^3-di(2-N^3-trimethylammoniumethyl)amide dicitrate salt [Compound 5]
incubation time at which very high PDT efficiency is reached [1]: less than 5 minutes
clearance kinetics ([2]; 24 h after i.v. administration): bicompartmental distribution
sensitizer cleared ([2]; within 30 min after i.v. injection (0.6 mg/kg)): about 60%
survival (Kaplan-Meier survival curve) (C6 glioma xenografts; 0.3 mg/kg i.v., illuminated 15 min, 755 nm, 80 mW/cm^2): 80%
lower concentration causing tumor eradication than Pd-Bpheid or the negatively-charged 13^1-(2-sulfoethyl)amide dipotassium salt (C6 glioma xenografts; C6 glioma xenografts in mice): 10 fold
outcome at tumor site (C6 glioma xenografts; PDT-treated mouse, by day 32): the wound healed and the animal was cured
tumor necrosis (C6 glioma xenografts; PDT-treated mouse, day 14, 0.3 mg/kg, 80 mW/cm^2): tumor necrosis was observed
local reaction after treatment (C6 glioma xenografts; all animals of full treatment group, day 1 after treatment): developed inflammation and edema
tumor necrosis, dark control (C6 glioma xenografts; injected with compound but not illuminated): No necrosis of the tumor
death of E. coli (E. coli; 10 μM, illuminated): ~100%
phototoxic concentration (E. coli; 1 h incubation, illuminated 15 min at 70 mW/cm^2, read-out: Kd (phototoxicity)): 1700 nM
